We go through 1 compound from patent publication US20240075087A1, “COMPOSITIONS AND METHODS COMPRISING HEMP EXTRACT FOR THE TREATMENT OF ANIMALS IN NEED” (Portland Technology Holdings LLC, priority 2021, published 2024).

The structures appear in SMILES notation. In brackets after ≈: the same amount, converted by molar mass.

What all share (format): cell-based, canine
Assay [1] has as its system D17 osteosarcoma cell line. The assay is described as follows: 48 hours MTT proliferation assay, D17. As to conditions: pure compound. As for the experimental part: 3-(4,5-Dimethylthaizol-2-yl)-2,5-diphenyltetrazolium bromide (MTT) assays are performed on all previously described cell lines; CMT12, HMPOS, D17, Abrams and 17-71. […] Cells are treated with vehicle (methanol or ethanol/DMSO mix) or various concentrations of the CBD, CBDA or CBD-rich hemp extract ranging from 0.42 to 20 μg/mL in serial dilution for 48 hours. MTT assays are performed after 48 hours of treatment by adding 20 μL of MTT dye ([…] filtered 5 mg/mL in phosphate-buffered saline [PBS]) to each well and incubating at 37° C. in 5% CO2 for 2 hours. The media is then aspirated, washed once with 200 μL of PBS and then solubilized in 200 μL of ethanol. Immediate analysis of the optical density of each well is performed using a spectrophotometric plate reader (Epoch; Biotek, Winooski, Vermont) at a wavelength of 570 nm as previously described (e.g., Vega-Avila E and Pugsley M K, An overview of colorimetric assay methods used to assess survival or proliferation of mammalian cells, Proc West Pharmacol Soc., 2011, 54, pp. 10-14 which is incorporated herein by reference in its entirety). The percent proliferating cells of control for each concentration is averaged and reported as a mean+/—SD from triplicate wells over three experiments.
For CBD, CBDA and hemp extract concentrations needed to obtain a 50% inhibition of cell proliferation (IC50) are then calculated across experiments by Probit analysis using XLFit5 software (IDBS, Guildford, United Kingdom) for reporting the results for each cell line.

A further assay concerns 17-71 cell line. The assay is described as follows: Annexin V-FITC apoptosis assay, 17-71. The settings on record: 15 μg/mL CBD, VC 10.1±0.4%. The method, then:
Apoptosis after 4 and 8 hours treatment is measured using Annexin-V staining (Invitrogen Annexin V-FITC staining kit, Carlsbad, California). Briefly, cells are detached with Accumax (Innovative Cell Technologies, San Diego, California), collected and centrifuged for 10 m at 1000 g at 4° C. The pellet is washed once with PBS before resuspension in Annexin Binding Buffer (ABB; 10 mM HEPES, 140 mM NaCl, 2.5 mM CaCl2, pH 7.4) at a density of approximately 1×10^6 cell/mL. […] After the incubation, ABB is added to the cell suspension and kept on ice until fluorescence is measured with the BD FACScalibur flow cytometer using an argon laser (BD Biosciences, Ashland, Oregon). Ten thousand events are collected per sample. Analysis is performed with the FlowJo software (Version 10.7.1. Becton, Dickinson, Ashland, Oregon) by first gating based on the forward- and side-scatter characteristics for each cell line followed by Annexin V-FITC positive cells. Negative fluorescence controls are unstained cells. Three independent replicates are examined for each treatment.

Assay [2] concerns 17-71, CMT12 and D17 cell lines. As to the kind of experiment: Time course Western blot of signalling pathways, autophagy and caspase 3. As for the experimental part: Cells are plated on 100 mm tissue culture-treated plates and incubated overnight in complete medium until 60% confluency is reached. […] Cells are harvested and lysed at each time point for control and CBD treated cells using mammalian lysis buffer (25 mM Tris, 100 mM NaCl, 1 mM EDTA, 1% Triton X-100, pH 7.4), and then centrifuged for 5 minutes at 12 000 g at 4° C. The supernatant is collected and the protein concentration is determined using the Bradford assay (Coomassie-dye; ThermoFisher Scientific Pierce, Waltham, Massachusetts). […] Membranes are incubated overnight in primary antibody solutions at a dilution of 1:1000 in TBST on a rocking platform at 4° C. Primary antibodies confirmed as cross reactive with canine cells or tissues include mouse extracellular regulated kinase (ERK) (R&D Biosciences, Boston, Massachusetts); rabbit anti-protein kinase B (AKT), Ser473 phosphorylated-AKT, stress-activated protein kinase/jun-amino-terminal kinase (SAPK/JNK), Thr183/Tyr185 phosphorylated-SAPK/JNK, mammalian target of rapamycin (mTOR), Ser2448 phosphorylated-mTOR, anti-Thr202/Tyr204 phosphorylated p44/42 MAPK (ERK1/2), anti-p38, anti-phosphorylated p38, anti-p62 and anti-LC3 A/B (Cell Signalling Technology, Danvers, Massachusetts)(e.g., Syrjä P, Anwar T, Jokinen T, Kyöstilä K, Jäderlund K H, Cozzi F, Rohdin C, Hahn K, Wohlsein P, Baumgärtner W, Henke D, Oevermann A, Sukura A, Leeb T, Lohi H, and Eskelinen E L, Basal Autophagy Is Altered in Lagotto Romagnolo Dogs with an ATG4D Mutation, Vet Pathol, 2017 November, 54(6), pp. 953-963, doi: 10.1177/0300985817712793; Gordon I K, Ye F, and Kent M, Evaluation of the mammalian target of rapamycin pathway and the effect of rapamycin on target expression and cellular proliferation in osteosarcoma cells from dogs, Amer J Vet Res, 2008, 69, pp. 1079-1084; Ikari A, Atomi K, Kinjo Y, and Sugatani J, Magnesium deprivation inhibits a MEK-ERK cascade and cell proliferation in epithelial Madin-Darby canine kidney cells, Life Sci, 2010, 86, pp. 766-773; and Levine C B, Bayle J, Biourge V, and Wakshlag J J, Effects and synergy of feed ingredients on canine neoplastic cell proliferation, BMC Vet Res, 2016, 12(1), 159, which are incorporated herein by reference in their entirety). Membranes are washed three times with TBST and incubated at room temperature for 1 hour in the corresponding secondary anti-rabbit IgG or anti-mouse IgG horseradish peroxidase-conjugated antibody at a dilution of 1:2000 (Cell Signalling Technology, Danvers, MA). Membranes are washed three times with TBST and visualized with a chemi-luminescent reagent (Clarity Western ECL Substrate; Bio-Rad, Hercules, California). Digital images are captured using an imaging system (Biospectrum 410; UVP, Upland, California or FluorChem E; Cell Biosciences, San Jose, California). Each blot is performed twice from two different experiments to confirm findings.

As to `C=C(C)[C@@H]1CCC(C)=C[C@H]1c1c(O)cc(CCCCC)cc1O` [CBD, cannabidiol], the concentration for half-maximal inhibition (IC50) in assay [1] (Canis lupus familiaris, read-out: IC50 (Probit)) is 4.1 µg/mL (≈ 13 µM). The “concentrations that significantly diminished proliferation vs vehicle control” value in assay [1] (P<0.05) was at least 5 µg/mL. Further, the “Annexin V positive staining cells” value amounted to 31.0±10.8% with 17-71 cell line (4 hours) and 79.0±6.1% with 17-71 cell line (8 hours). In addition, in assay [2] (10 μg/mL CBD, 2, 4, 8 hours), the “caspase 3 activation” value is “activation of caspase 3 which can also be seen at 2 hours in the 17-71 cells, but is not evident until hour 8 in the CMT12 and D17 CBD treated cells”. Besides, the “AKT, phosphorylated-AKT, mTOR and phosphorylated-mTOR immunoblots” value in assay [2] (10 μg/mL CBD, 2, 4 and 8 hours) was “no depression or increased intensity of the signal over time”. Besides, in assay [2] (10 μg/mL CBD, 2 to 8 hours, all three cell lines), the “LC3II proportion of LC3 protein” value is “increase in the LC3II proportion of LC3 protein”. The “ERK and JNK phosphorylation” value in assay [2] (10 μg/mL CBD, 8 hour time-course vs methanol vehicle) is “repeatable increases in both ERK and JNK phosphorylation across all three cell lines”. The “autophagy cargo carrier protein p62 (western blotting)” value in assay [2] (10 μg/mL CBD, over 8 hours) is reported as “marked decrease”. In assay [2] (CBD treatment), the “p38 phosphorylation and activation” value is “minimal influence on the p38 phosphorylation and activation”. In assay [2] (after 8 and 16 hours of CBD treatment vs methanol vehicle control), the “cleaved caspase 3 (17 Kda) immunoblotting” value is recorded as “cleaved caspase across all cell lines at both time points”.
